Counter-ions that a name gives are not always drawn. Like-named read-outs stand apart in the source and are kept apart here. Marks after values point to notes of the source that are not given here.
Columns and labels:
[1] = tested on: BT cells (bovine turbinate cells); conditions: uninfected BT cells, 3 days; 100 μM maximum concentration tested
[2] = tested on: S. neurona + GFP/FLUC parasites; assay: Luciferase-based S. neurona growth inhibition, EC50 determination; conditions: for EC50: Sarcocystis neurona; for TI (TC50/EC50): ratio of BT cell TC50 to S. neurona EC50
Cryptosporidium parvum = conditions: ref Bessoff et al., 2013; cited from earlier work
T. gondii = conditions: ref Dittmar et al., 2016; Wang et al., 2017; Bowden, unpublished data; cited from earlier work
P. falciparum = conditions: PubChem BioAssay; ref Wang et al., 2017; cited from earlier work
[3] = horses, ref DiMaio Knych et al., 2011, cited from earlier work
[4] = tested on: S. neurona + GFP/FLUC parasites; assay: microbe, parasite or virus in culture; format: cell-based, Sarcocystis neurona; conditions: for Effect on S. neurona growth reflected by increases in FLUC activity: 10 μM HTS, not confirmed with secondary screening
S. neurona = conditions: ref Gargala et al., 2009, cited from earlier work
S. neurona parasites = conditions: ref Lindsay and Dubey, 1999; cited from earlier work
[5] = 96 h, read-out: EC50 in μM (95% CI)

Structure (SMILES) | EC50 [2, 5] [µM] | TI (TC50/EC50) [2] | TC50 [1] [µM] | further results
O=C(c1ccc(F)cc1)C1CCN(CCn2c(=S)[nH]c3ccccc3c2=O)CC1 [Altanserin] | 3.5 | 29 | – | TC50 in μM [1]: >100 ^a μM
C[C@H]1[C@H](OC(=O)CCC(=O)O)O[C@@H]2O[C@@]3(C)CC[C@H]4[C@H](C)CC[C@@H]1[C@@]24OO3 [Artesunate] | 3.3 | 30 | >100 | –
CN1CCCC(n2nc(Cc3ccc(Cl)cc3)c3ccccc3c2=O)CC1 (stereo not drawn) [Azelastine HCl] | 2.5 | 11 | 28 | –
CCCCCCNC(=O)n1cc(F)c(=O)[nH]c1=O [Carmofur] | 0.73 | 137 | >100 | Activity against Cryptosporidium parvum (Cryptosporidium parvum): active; Activity against T. gondii (T. gondii): active; Activity against P. falciparum (P. falciparum): active
Oc1c(Cl)cc(Cl)c2cccnc12 [Chloroxine] | 2.5 | 6 | 16 | –
CC(C)/N=c1\cc2n(-c3ccc(Cl)cc3)c3ccccc3nc-2cc1Nc1ccc(Cl)cc1 [Clofazimine] | 3.7 | 27 | >100 | –
O=C1CN(/N=C/c2ccc(-c3ccc([N+](=O)[O-])cc3)o2)C(O)=N1 [Dantrolene] | 0.065 | 800 | 52 | Peak plasma concentration ([3]; 500 mg capsules, converted): 85.95 nM; Peak plasma concentration ([3]; 500 mg capsules): 28.9 ± 21.6 ng/mL; Peak plasma concentration ([3]; 500 mg paste, converted): 112.4 nM; Peak plasma concentration ([3]; 500 mg paste): 37.8 ± 12.8 ng/mL; Time of peak plasma concentration after administration ([3]; both formulations (capsules and paste)): 3.8 h; EC50 ([2]; read-out: EC50 for S. neurona inhibition in ng/ml): 21.9 ng/mL
O=c1c(-c2ccccc2)c1-c1ccccc1 [Diphenylcyclopropenone] | 2.5 | 8 | 19 | –
CCN(CC)C(=S)SSC(=S)N(CC)CC [Disulfiram] | 0.15 | – | 20 | –
O=c1[nH]cc(F)c(=O)[nH]1 [Fluorouracil] | 0.79 | 99 | 78 | Activity against Cryptosporidium parvum (Cryptosporidium parvum): active; Activity against T. gondii (T. gondii): active; Activity against P. falciparum (P. falciparum): active
Oc1c(Cl)cc(Cl)c(Cl)c1Cc1c(O)c(Cl)cc(Cl)c1Cl [Hexachlorophene] | 2.8 | 20 | 56 | –
Cl.O=C1[C@H]2CCCC[C@H]2C(=O)N1CCCCN1CCN(c2nsc3ccccc23)CC1 [Perospirone HCl] | – | 25 | 86 | –
OCCN1CCN(CCCN2c3ccccc3Sc3ccc(Cl)cc32)CC1 [Perphenazine] | 3.3 | 4 | 14 | –
COc1cc2nc(N3CCN(C(=O)c4ccco4)CC3)nc(N)c2cc1OC [Prazosin] | 6 | 8 | 45 | –
COc1cc(NC(C)CCCN)c2ncccc2c1 (stereo not drawn) [Primaquine phosphate] | 2.2 | 21 | 47 | –
CCc1nc(N)nc(N)c1-c1ccc(Cl)cc1 [Pyrimethamine] | 3.9 | 26 | >100 | FLUC activity of treated parasites ([2]; 10 μM, measured every 2 days over 10-day incubation): severely diminished FLUC activity; EC50 ([2]; read-out: EC50 of pyrimethamine (HTS validation, Fig. 2B)): 3.22 µM
CN1CCN(CC/C=C2/c3ccccc3Sc3ccc(S(=O)(=O)N(C)C)cc32)CC1 [Thiothixene] | 6.3 | 5 | 30 | –
CCCSc1ccc2nc(NC(=O)OC)[nH]c2c1 [albendazole] | – | – | – | Effect on S. neurona growth reflected by increases in FLUC activity [4]: growth-enhancing
CC(=O)Oc1ccccc1C(=O)Nc1ncc([N+](=O)[O-])s1 [nitazoxanide] | ~12 | – | – | Reported mean 90% inhibitory activity against S. neurona, in μM (S. neurona; approximate conversion): approximately 6.2 μM; Reported mean 90% inhibitory activity against S. neurona (S. neurona): 1.9 mg/L
c1ccc2[nH]c(-c3cscn3)nc2c1 [thibendazole] | – | – | – | Effect on S. neurona growth reflected by increases in FLUC activity [4]: growth-enhancing
COc1cc(Cc2cnc(N)nc2N)cc(OC)c1OC [trimethoprim] | ~19 | – | – | inhibition at 10 µM ([4]; Sarcocystis neurona, read-out: % inhibition of parasite growth in HTS): ≤ 80%; Reported EC50 for S. neurona parasites in vitro (S. neurona parasites): 2.5 µg/mL
Cc1ccc(-c2nc3ccc(C)cn3c2CC(=O)N(C)C)cc1 [zolpidem tartrate] | – | – | – | Effect on S. neurona growth reflected by increases in FLUC activity [4]: growth-enhancing

Reference: publication PMC6114104 (International Journal for Parasitology: Drugs and Drug …, 2018)
